From publication PMC12444472, “BCI inhibits MKP3 by targeting the kinase-binding domain and disrupting ERK2 interaction” (The Journal of Biological Chemistry, 2025)

Experiments:
Test in all cases: NMR titration (1H-15N HSQC)
Format in all cases: binding
MKP1^KBD = molecular target: T1, MKP1^KBD (Homo sapiens, UniProt P28562); conditions: molar ratio 1:15
T1 construct: MKP1(1–141) (MKP1^KBD); made in house; host or cells: Escherichia coli BL21(DE3)
T1 sequence (P28562 1-141): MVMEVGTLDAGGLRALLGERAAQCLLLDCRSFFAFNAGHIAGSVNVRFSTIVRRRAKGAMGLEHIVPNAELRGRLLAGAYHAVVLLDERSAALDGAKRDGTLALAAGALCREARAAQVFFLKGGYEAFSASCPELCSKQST
Experimental: (§1) NMR data were collected at 298 K on a Bruker AVANCE NEO 800 MHz spectrometer (Bruker BioSpin) equipped with a ^1H&^19F/^13C/^15N TCI cryogenic probe. Backbone resonances of MKP3^1–154 were assigned using 2D/3D experiments, including 2D ^1H–^15N HSQC and 3D ^1H/^13C/^15N CBCA(CO)NH, HNCACB, HNCO, and HN(CA)CO, performed with uniformly ^13C/^15N labeled protein at a final concentration of 0.39 mM in buffer containing 20 mM imidazole (pH 6.0), 100 mM NaCl, 5 mM DTT, 0.5 mM EDTA, and 5% (v/v) D2O. The buffer used for backbone resonance assignment was similar to that used for the previously reported NMR structure ([15]). NMR titration experiments were conducted using ^15N-labeled MKP3^1–154, MKP3^14–152, MKP3^204–350, MKP1^1–141, MKP2^5–159, MKPX^1–140, MKP4^1–143, and MKP5^139–287. 2D ^1H–^15N HSQC spectra of ^15N-labeled MKPs^KBD (0.1 mM) were acquired in the absence and presence of BCI (50 mM stock in DMSO-d6) in buffer containing 50 mM KH2PO4–K2HPO4 (pH 7.2), 100 mM KCl, 1 mM Tris(2-carboxyethyl)phosphine hydrochloride, 1 mM EDTA, and 5% (v/v) D2O. Control experiments, in which only the corresponding volume of DMSO-d6 was added to ^15N-labeled proteins, were performed to exclude possible effects of DMSO on the interactions. For ^15N T1 measurements, the relaxation delay times were set to 20 (×2), 100, 200 (×2), 300, 400, 600 (×2), 800, 1200, and 1600 ms. For ^15N T2 measurements, the delay times were 7.84, 15.68 (×2), 23.52, 31.36 (×2), 39.2, 47.04 (×2), 54.88, 62.72, 78.4, 94.08, and 109.76 ms. The relaxation rates R1 (1/T1) and R2 (1/T2) for each residue were determined by fitting the peak intensities from spectra acquired at the various delay times to a single-exponential decay function: I/I0 = exp(-R1,2·t), where I0 is the intensity at t = 0, and I is the intensity at a delay time t. Repeated measurements were used to estimate the uncertainties of the R1 and R2 values via Monte Carlo analysis. Heteronuclear steady-state ^1H–^15N NOE experiments were acquired in an interleaved mode, with 5 s of ^1H saturation for NOE build-up and 5 s of relaxation delay for the reference spectra. Repeated experiments were performed to estimate uncertainties, and the propagated error for each NOE value was calculated using the following equation: σNOE = NOE × ((σsat/Isat)^2+(σunsat/Iunsat)^2)^1/2, where σsat and σunsat are the SDs of the saturated and unsaturated spectra, respectively, and Isat and Iunsat are the corresponding signal intensities. NMR data were processed using TopSpin 4.1.1 (Bruker BioSpin) or NMRPipe ([54]) and analyzed with POKY ([55]).

MKP3^CD = molecular target: T2, MKP3^CD (Homo sapiens, UniProt Q16828)
T2 construct: ^15N-labeled MKP3^1–154, MKP3^14–152, MKP3^204–350; made in house; host or cells: Escherichia coli BL21(DE3)
T2 sequence (Q16828 204-350): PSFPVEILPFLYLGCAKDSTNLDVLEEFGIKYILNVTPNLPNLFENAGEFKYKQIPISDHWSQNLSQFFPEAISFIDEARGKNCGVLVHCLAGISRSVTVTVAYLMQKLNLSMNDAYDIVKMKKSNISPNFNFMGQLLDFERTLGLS
Experimental: as §1

MKP2^KBD = molecular target: T3, MKP2^KBD (Homo sapiens, UniProt Q13115); conditions: molar ratio to BCI 1:13
T3 construct: MKP2(5–159) (MKP2^KBD); made in house; host or cells: Escherichia coli BL21(DE3)
T3 sequence (Q13115 5-159): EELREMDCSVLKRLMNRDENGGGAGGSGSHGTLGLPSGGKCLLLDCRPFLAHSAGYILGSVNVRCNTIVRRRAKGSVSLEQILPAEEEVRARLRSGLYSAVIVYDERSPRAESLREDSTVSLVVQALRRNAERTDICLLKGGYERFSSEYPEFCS
Experimental: as §1

MKP5^KBD = molecular target: T4, MKP5^KBD (Homo sapiens, UniProt Q9Y6W6); conditions: molar ratio 1:5
T4 construct: MKP5(139–287) (MKP5^KBD); made in house; host or cells: Escherichia coli BL21(DE3)
T4 sequence (Q9Y6W6 139-287): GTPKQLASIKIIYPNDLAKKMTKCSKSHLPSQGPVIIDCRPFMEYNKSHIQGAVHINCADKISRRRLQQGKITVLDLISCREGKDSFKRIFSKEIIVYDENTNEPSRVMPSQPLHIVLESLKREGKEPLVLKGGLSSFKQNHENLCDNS
Experimental: as §1

MKPX^KBD = molecular target: T5, MKPX^KBD (Homo sapiens, UniProt Q16829); conditions: molar ratio 1:2
T5 construct: MKPX(1–140) (MKPX^KBD); made in house; host or cells: Escherichia coli BL21(DE3)
T5 sequence (Q16829 1-140 isoform Q16829-2): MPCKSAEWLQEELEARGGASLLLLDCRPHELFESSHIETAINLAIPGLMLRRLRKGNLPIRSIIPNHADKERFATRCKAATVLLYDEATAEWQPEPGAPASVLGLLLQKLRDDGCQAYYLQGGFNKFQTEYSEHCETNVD
Experimental: as §1

MKP4^KBD = molecular target: T6, MKP4^KBD (Homo sapiens, UniProt Q99956); conditions: molar ratio 1:15
T6 construct: MKP2^5–159, MKPX^1–140, MKP4^1–143, and MKP5^139–287; made in house; host or cells: Escherichia coli BL21(DE3)
T6 sequence (Q99956 1-143): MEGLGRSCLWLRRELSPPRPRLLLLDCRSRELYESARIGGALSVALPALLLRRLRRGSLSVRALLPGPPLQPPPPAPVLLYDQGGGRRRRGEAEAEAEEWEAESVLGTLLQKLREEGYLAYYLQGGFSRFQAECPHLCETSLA
Experimental: as §1

perturbation of NMR spectrum (MKP1^KBD): No significant NMR peak perturbation
perturbation of NMR spectrum (MKP3^CD; excess BCI, without DMSO (low-activity state)): no detectable interaction
perturbation of NMR spectrum (MKP3^CD; with 25% DMSO (high-activity state)): failed to perturb the spectrum
perturbation of NMR spectrum (MKP2^KBD): Peak broadening was detected
perturbation of NMR spectrum (MKP5^KBD): Significant peak broadening
perturbation of NMR spectrum (MKPX^KBD): Significant peak broadening
perturbation of NMR spectrum (MKP4^KBD): No significant NMR peak perturbation
SMILES: O=C1/C(=C/c2ccccc2)C(NC2CCCCC2)c2ccccc21 (stereo not shown) [BCI, (E)-2-benzylidene-3-(cyclohexylamino)-2,3-dihydro-1H-inden-1-one]
